Experimental data: patent publication US8349215B2, “Corrosion inhibitors having increased biological degradability and minimized toxicity” (Clariant Finance (BVI) Limited, priority 2008, dated 2013)

Experiments:
[1] = Biodegradability (OECD 306)
[2] = test system: Skeletonema costatum; test: Toxicity (EC50 Skeletonema costatum); assay type: cell-based

Row | Compound | Biodegradability [1] [%] | Toxicity EC50 [2] [mg/L]
1 | CCCCCCCCN1CC(C(=O)O)CC1=O.NCCO (stereo not shown) [Compound from example 1, N-octyl-5-oxopyrrolidine-3-carboxylic acid monoethanolammonium salt] | 85 | >100
2 | CCCCCCCC/C=C\CCCCCCCCN1CC(C(=O)O)CC1=O.NCCO (stereo not shown) [Compound from example 5, N-oleyl-5-oxopyrrolidine-3-carboxylic acid monoethanolammonium salt] | 78 | >100
